Here are results for four compounds from US20230392140A1, “REVERSE TRANSCRIPTION OF POLYNUCLEOTIDES COMPRISING UNNATURAL NUCLEOTIDES” (Synthorx, Inc., priority 2020, published 2023).

Where two headings read alike, the source gives them in different places.

For data set [1], the system named is E. coli SSO. The experiment in a line: T-RT retention of sfGFP mRNA extracted from SSO in vivo translation experiments. The class given is cell-based. Details: unit of the concentration uncertain. Conditions: for T-RT retention: mRNA sfGFP(GXT), n = 3. The procedure: (§1) Reverse transcription. The reverse transcription reactions were conducted according to the manufacturer's instructions of each reverse transcriptase with the following modifications. In all reverse transcription reactions, 1 μg mRNA or 20 ng tRNA, 0.5 mM dNTP and 0.2 mM dNaMTP or dTPT3TP per 20 μL reaction were used unless stated otherwise. For SuperScript III (18080044, ThermoFisher), reactions were incubated at 55° C. for 45 min, inactivated at 70° C. for 15 min, followed by RNase H (M0297S, New England Biolabs, (NEB)) and RNase A (R1253, ThermoFisher) digestion. For SuperScript IV (18090010, ThermoFisher), reactions were incubated at 55° C. for 20 min, inactivated at 80° C. for 10 min, followed by RNase H, RNase A, and Proteinase K (P8107S, New England Biolabs, (NEB)) digestion. For AMV reverse transcriptase (M0277S, New England Biolabs, (NEB)), reactions were incubated at 42° C. for 60 min, inactivated at 80° C. for 5 min, followed by RNase H and RNase A digestion. After digestion, 10 μL of each reaction mixture was denatured with RNA loading dye (B0363S, New England Biolabs, (NEB)) and subjected to 10% denaturing polyacrylamide gel electrophoresis with 8 M urea (CAS 57-13-6, Sigma Aldrich) for cDNA detection. The other 10 μL of the reaction mixture was purified using a commercial RNA purification kit (D7011, Zymo Research; Irvine, CA) and the product cDNA was quantified using Qubit.
(§2) SSO in vivo translation. A 2 mL overnight culture of YZ3+pGEX-MbPylRS TetR cells in 2×YT (Y2377, Sigma Aldrich) supplemented with 50 mM potassium phosphate (CAS 7778-77-0, Sigma Aldrich), 5 μg/mL chloramphenicol (CAS 56-75-7, Sigma Aldrich) and 100 μg/mL carbenicillin (C1613, Sigma Aldrich) (herein afterward referred to in this section as “media”) was diluted to an OD600 of 0.03 in the same media, and grown to an OD600 of 0.3 to 0.4. The culture was rapidly cooled in an ice water bath for 5 min with shaking, and then pelleted at 3,200×g for 10 min. Cells were next washed twice with one culture volume of pre-chilled autoclaved Milli-Q H2O. Cells were then resuspended in additional chilled H2O, to an OD600 of 50-60. For each sample tested, 50 μL of the resulting electrocompetent cells were combined with 0.5 ng of Golden Gate assembled plasmid containing the UBP embedded within the sfGFP and tRNA^Pyl genes and then transferred to a pre-chilled electroporation cuvette (0.2 cm gap). Cells were electroporated (Gene Pulser II; Bio-Rad) according to the manufacturer's instructions for bacteria ([…], 2.5 μF, and 200Ω resistor), then immediately diluted with 950 μL of pre-warmed media. 10 μL of this dilution was then diluted with pre-warmed media to a final volume of 50 μL, supplemented with […] and 10 μM dTPT3TP. The transformation was allowed to recover at 37° C. for 1 h. The recovery culture was plated on solid media supplemented with 50 μg/mL zeocin (R25001, ThermoFisher), 150 μM dNaMTP, 10 μM dTPT3TP, and 2% w/v agar, then allowed to grow at 37° C. overnight.
(§3) Single colonies were isolated and used to inoculate 300 μL liquid media supplemented with 50 μg/mL zeocin (herein afterward referred to in this section as “growth media”) and provided 150 μM dNaMTP, and 10 μM dTPT3TP, then monitored for cell growth via OD600 using an Envision 2103 Multilabel Plate Reader (Perkin Elmer) with a 590/20 nm filter. Cells were collected at an OD600 of ˜0.7, and then an aliquot (100 μL) was subjected to miniprep. Isolated plasmids were subjected to biotin shift assay to determine UBP retention. […] At an OD600 of cultures were supplemented with 250 μM NaMTP and 30 μM TPT3TP unless stated otherwise, as well as 10 mM of the ncAA N6-(2-azidoethoxy)-carbonyl-L-lysine (AzK). The culture was then grown for and additional 20 min before adding IPTG (CAS 367-93-1, Sigma Aldrich) to a concentration of 1 mM and grown for 1 h to induce the transcription of the T7 RNA polymerase, the tRNA^Pyl, and the PylRS. […]

The test system of data set [2] is E. coli SSO. Put plainly: T-RT retention of M. mazei tRNA extracted from SSO in vivo translation experiments. The class given is cell-based. Details: unit of the concentration uncertain. Conditions: for T-RT retention: tRNA(AYC), n = 3. The procedure: as §1, §2, §3
For data set [3], the system named is SuperScript III reverse transcriptase. As to conditions: 10 ng RNA per reaction, replicate 1, unnatural dNTP supplied, 55 C.

On to `COc1cc2ccccc2cc1[C@@H]1O[C@H](COP(=O)(O)OP(=O)(O)OP(=O)(O)O)[C@@H](O)[C@H]1O` [NaMTP], for which the “retention of NaM in the mRNA as NaMTP concentration was decreased” value in the data set with E. coli SSO [1] (TPT3TP held constant at 250 µM, until NaMTP dropped to less than 50 μM) is “remained high”. Moreover, the T-RT retention is given as 0.70 in the data set with E. coli SSO [1] (NaMTP concentration 12.5 µM); 0.81 in the data set with E. coli SSO [1] (NaMTP concentration 25 µM); 0.88 with E. coli SSO [1] (NaMTP concentration 50 µM); 0.94 in the data set with E. coli SSO [1] (NaMTP concentration 125 µM); 0.93 with E. coli SSO [1] (NaMTP concentration 250 µM).
Consider `O=P(O)(O)OP(=O)(O)OP(=O)(O)OC[C@H]1O[C@@H](n2ccc3ccsc3c2=S)[C@H](O)[C@@H]1O` [TPT3TP], for which the “retention of TPT3 in the tRNA as TPT3TP concentration was varied” value in the data set on E. coli SSO [2] (NaMTP held constant at 250 (unit uncertain), even at the lowest concentration examined (10 μM)) is “remained high”. Also, the T-RT retention in the data set with E. coli SSO [2] (TPT3TP concentration 12.5 (unit uncertain)) is reported as 0.95; in the data set with E. coli SSO [2] (TPT3TP concentration 25 (unit uncertain)) it was 0.97; in the data set on E. coli SSO [2] (TPT3TP concentration 50 (unit uncertain)), 0.98; in the data set with E. coli SSO [2] (TPT3TP concentration 125 (unit uncertain)), 0.95; in the data set on E. coli SSO [2] (TPT3TP concentration 250 (unit uncertain)), 0.94.
As for M. mazei tRNA with NaM anticodon, the activity (full-length product ratio) in data set [3] (NaM ribonucleotide at second nucleotide of anticodon, 0.8789 at 500 ng) is 0.973.
Consider M. mazei tRNA with TPT3 anticodon, for which the activity (full-length product ratio) in data set [3] (TPT3 ribonucleotide at second nucleotide of anticodon, 0.4423 at 500 ng) came out at 0.917.
